In patent EP1181269B1, “CELL PROLIFERATION INHIBITORS” (ABBOTT LABORATORIES, priority 1999, dated 2000):

Legend:
[1] = tested on: human lung large cell carcinoma, MDR negative (NCI-H460) cells; test: 48-hour cellular proliferation assay (sulforhodamine staining, 96-well microtitre format); assay type: cell-based; conditions: 10^-4M compound, 48 hours in culture, 0% = DMSO control, 100% = trichloroacetic acid-treated well; for inhibition at 100 µM: Homo sapiens, read-out: NCI-460 % inhibition at 10^-4M
Protocol: (§1) Compounds of this invention were tested in a 48-hour cellular proliferation assay which uses human colon adenocarcinoma, MDR positive (HCT-15) cells, and human lung large cell carcinoma, MDR negative (NCI-H460) cells, in the 96-well microtitre format described in Skehan P., et al. New Colorimetric Cytotoxicity Assay for Anticancer Drug Screening. 1990, J. Natl. Cancer Inst. 82:1107-1112. Briefly, the wells of a microtitre plate were charged sequentially with cultured cells and compounds of the invention (1.0 x 10^-4 to 1.0 x 10^-11 M in 10% DMSO prepared by dissolving compounds of the invention in DMSO and adding 11 µL of the DMSO solution to 100 µL of culture medium for a final DMSO concentration of 10%). Two of the following controls were also present in each microtitre plate: a solvent (DMSO) control without drug that yielded a 0% inhibition level and a trichloroacetic acid-treated well that yielded a 100% inhibition level. The cells were grown in culture (37 °C, 5% CO2 atmosphere) for 48 hours then fixed by the addition of trichloroacetic acid. The wells were stained with sulforhodamine, washed with 1% acetic acid, and treated with 0.01 M tris buffer (100 µL) to solubilize the adherent dye. The absorbance of the dye solution was measured with a Molecular Devices SpechaMax340 plate reader. The percent inhibition values were obtained by calculating the proportional response of the experimental values to the absorbance values of the controls.

[2] = tested on: human colon adenocarcinoma, MDR positive (HCT-15) cells; test: as above; assay type: cell-based; conditions: 48 hours in culture, 0% = DMSO control, 100% = trichloroacetic acid-treated well; for inhibition at 100 µM: Homo sapiens, HCT-15, 10^-4M compound
Protocol: as §1

Row | SMILES | inhibition at 100 µM [1] [%] | inhibition at 100 µM [2] [%] | NCI-460 % inhibition at 10^-4M [1] [%] | HCT-15 % inhibition at 10^-4M ([2]; 10^-4M compound) [%]
1 | COc1ccc(S(=O)(=O)Nc2cc(OC)c(OC)c(OC)c2)cc1 [Example 1, 4-methoxy-N-(3,4,5-trimethoxyphenyl)benzenesulfonamide] | 98.5 | 99.4 | – | –
2 | COc1cc(NS(=O)(=O)c2ccc3c(c2)CCN3C=O)cc(OC)c1OC [Example 2, 1-formyl-N-(3,4,5-trimethoxyphenyl)indoline-5-sulfonamide] | 74 | 79.9 | – | –
3 | COc1cc(NS(=O)(=O)c2ccc3c(c2)CCN3)cc(OC)c1OC [Example 3, N-(3,4,5-trimethoxyphenyl)indoline-5-sulfonamide] | 59.3 | 86.2 | – | –
4 | COc1cc(NS(=O)(=O)c2c[nH]c3ccc([N+](=O)[O-])cc23)cc(OC)c1OC [Example 4, 5-nitro-N-(3,4,5-trimethoxyphenyl)-1H-indole-3-sulfonamide] | 41.7 | 15.9 | – | –
5 | COc1cc(NS(=O)(=O)c2ccc3c(c2)CCN3C)cc(OC)c1OC [Example 5, 1-methyl-N-(3,4,5-trimethoxyphenyl)indoline-5-sulfonamide] | 96.1 | 97.6 | – | –
6 | COc1cc(NS(=O)(=O)c2cn(C)c3ccc([N+](=O)[O-])cc23)cc(OC)c1OC [Example 6, 1-methyl-5-nitro-N-(3,4,5-trimethoxyphenyl)-1H-indole-3-sulfonamide] | 45.5 | 50.6 | – | –
7 | COc1cc(NS(=O)(=O)c2cn(C)c3ccc(N)cc23)cc(OC)c1OC [Example 7, 5-amino-1-methyl-N-(3,4,5-trimethoxyphenyl)-1H-indole-3-sulfonamide] | 87 | 91.9 | – | –
8 | COc1cc(NS(=O)(=O)c2c[nH]c3ccc(N)cc23)cc(OC)c1OC [Example 8, 5-amino-N-(3,4,5-trimethoxyphenyl)-1H-indole-3-sulfonamide] | < 9.1 | 37 | – | –
9 | COc1cc(NS(=O)(=O)c2ccc3[nH]ccc3c2)cc(OC)c1OC [Example 9, N-(3,4,5-trimethoxyphenyl)-1H-indole-5-sulfonamide] | 89.1 | 94.1 | – | –
10 | COc1cc(NS(=O)(=O)c2ccc3c(ccn3C)c2)cc(OC)c1OC [Example 10, 1-methyl-N-(3,4,5-trimethoxyphenyl)-1H-indole-5-sulfonamide] | 100 | 100 | – | –
11 | COc1cc(N(C)S(=O)(=O)c2ccc3c(ccn3C)c2)cc(OC)c1OC [Example 11, N,1-dimethyl-N-(3,4,5-trimethoxyphenyl)-1H-indole-5-sulfonamide] | 99.9 | 100 | – | –
12 | COc1cc(S(=O)(=O)Oc2ccc3[nH]ccc3c2)cc(OC)c1OC [Example 15, 1H-indol-5-ol,(3,4,5-trimethoxybenzenesulfonate) ester] | – | – | 100.0 | 100.0
13 | COc1cc(S(=O)(=O)Oc2ccc3c(ccn3C)c2)cc(OC)c1OC [Example 16, 1-methyl-1H-indol-5-yl 3,4,5-trimethoxybenzenesulfonate] | 100 | 100 | – | –
